The target of one assay is LSD1 (Homo sapiens, UniProt O60341). Put plainly: LSD1 fluorescence coupling enzyme assay (HRP/Amplex Red, H3(1-21)K4me2 peptide), 10-dose IC50. The note with it: 10 μM histone H3(1-21)K4me2 peptide substrate, 3-fold serial dilution from 100 μM. It is filed as biochemical. An excerpt: Assaying the inhibition of KDM1A can be determined in vitro, in cultured cells, and in animals. There are a variety of spectrophotometric methods to detect the results of demethylation of methylated lysines, viz., detecting the products of KDM1A demethylase oxidative activity on a peptide fragment of at least 18 amino acids representing the N-terminus of the histone H3 substrate that contains a monomethyl at the fourth lysine residue. Hydrogen peroxide, one product of the KDM1A demethylase reaction, reacts with horseradish peroxidase and dihydroxyphenoxazine (ADHP) to produce the fluorescent compound resorufin (excitation=530-560 nm: emission=590 nm). The KDM1A demethylase enzyme activity can be obtained from mammalian cells or tissues expressing KDM1A from an endogenous or recombinant gene and purified or assayed from a whole cell extract. These methods can be used to determine the concentration of the disclosed compounds can inhibit fifty percent of the enzyme activity (IC50).
Alternatively, the production of H2O2 during the KDM1A reaction can be detected fluometrically. In this system, the production of H2O2 is detected in the HDM assay buffer after exposure to substrate, co-factor and enzyme using ADHP (10-Acetyl-3, 7-dihydroxyphenoxazine) as a fluorogenic substrate for horse radish peroxidase (HRP). […] The florescent product is resorufin. Sensitivity can be as low as 10-15 M of target protein. The signal is read using a fluorescence microplate reader at excitation and emission wavelengths of 530-560 nm and 590 nm, respectively.
Compounds were tested in a 10-dose IC50 mode fluorescence coupling enzyme assay with 3-fold serial dilution in duplicate starting at 100 μM. The production of FAD-dependent H2O2 as a result of demethylase activity of LSD1 on 10 μM histone H3(1-21)K4me2 peptide substrate was measured by coupling with HRP and Amplex Red to yield resorufin (fluorescence measured at Ex/Em=535/590 nm on EnVision, Perkin Elmer).

A further assay relates to MV4;11 cells. Description: Cell Titer-Glo cell growth inhibition in MV4;11 cell line (Day 5 / Day 10). It is filed as cell-based. To be noted: Homo sapiens. How it is done:
Cell growth inhibition against MV4;11 cells was confirmed for the synthetic compounds. The Cell Titer-Glo Luminescent Cell Viability Assay (Promega, USA) was used to determine the number of viable cells in culture based on quantitation of the ATP present, which signals the presence of metabolically active cells. This assay was run in a 96-well plate format arrayed in a 10-point dose curve, ranging from 0 to 50 µM with 4-fold dilutions for each compound. Cells are seeded on Day 0 at 3750 cells per well. At Day 5, a portion of each well is assayed for viability according to the Cell Titer-Glo protocol. Briefly, cells/plates were centrifuged at 1100×g for 5 minutes. 100 μL of media was removed from each well and replaced with 100 μL of CellTiter-Glo. The plates were shaken at room temperature for 10 minutes and measured on a luminescence plate reader. Another portion of each well from the Day 5 plate is used to seed a new 96 plate containing fresh compound and media set up in the equivalent 10-point dose curve array in order to continue the cell growth inhibition assay for another 5 days. A final timepoint is collected at Day 10 using the Cell Titer-Glo protocol. Luminescence was detected on an En Vision® Multilabel Plate Reader (Perkin Elmer, Waltham, Mass.) and IC50 determination was made using Graph Pad Prism software.
(In general: In ATP-based viability assays light output follows the ATP content of the culture.)

Molecules are shown by their SMILES. Like-named read-outs stand apart in the source and are kept apart here.

For the molecule `COC1CCN(c2ccc(-n3nc(NC[C@H]4CCC[C@H](N)C4)cc3-c3ccc(C#N)c(F)c3)c(F)c2)CC1` [Example 92, 4-(3-((((1S,3S)-3-aminocyclohexyl)methyl)amino)-1-(2-fluoro-4-(4-methoxypiperidin-1-yl)phenyl)-1H-pyrazol-5-yl)-2-fluorobenzonitrile 2,2,2-trifluoroacetate], the IC50 against LSD1 was less than 500 nM.

As for `N#Cc1ccc(-c2cc(NCC3CCC[C@H](N)C3)nn2-c2ccc3nn(-c4ccncc4)cc3c2)cc1F` (stereo partly drawn) [Example 75, 4-(3-((((15,3S)-3-aminocyclohexyl)methyl)amino)-1-(2-(pyridin-4-yl)-2H-indazol-5-yl)-1H-pyrazol-5-yl)-2-fluorobenzonitrile], the IC50 was 500 to 1000 nM in the assay with MV4;11 cells (MV4-11, 120 h, Day 5, read-out: Cell Titer-Glo IC50 (5 d)) and less than 500 nM with MV4;11 cells (MV4-11, 240 h, Day 10, read-out: Cell Titer-Glo IC50 (10 d)).

`N#Cc1ccc(-c2cc(NC[C@@H]3CCCNCC3)nn2-c2ccc(N3CCS(=O)(=O)CC3)cc2F)cc1F` [Example 106, (R)-4-(3-((azepan-4-ylmethyl)amino)-1-(4-(1,1-dioxidothiomorpholino)-2-fluorophenyl)-1H-pyrazol-5-yl)-2-fluorobenzonitrile]: the IC50 on LSD1 is less than 500 nM.

At LSD1, `CN(c1ccc(-n2nc(NC[C@H]3CCC[C@H](N)C3)cc2-c2ccc(C#N)c(F)c2)cc1)C1CCOCC1` [Example 93, 4-(3-((((1S,3S)-3-aminocyclohexyl)methyl)amino)-1-(4-(methyl(tetrahydro-2H-pyran-4-yl)amino)phenyl)-1H-pyrazol-5-yl)-2-fluorobenzonitrile 2,2,2-trifluoroacetate] yielded an IC50 of less than 500 nM.

`N#Cc1ccc(-c2cc(NCC3CCCNCC3)nn2-c2ccc(N3CCS(=O)(=O)CC3)c(F)c2)cc1F` (stereo not drawn) [Example 110, 4-(3-((azepan-4-ylmethyl)amino)-1-(4-(1,1-dioxidothiomorpholino)-3-fluorophenyl)-1H-pyrazol-5-yl)-2-fluorobenzonitrile 2,2,2-trifluoroacetate] displayed an IC50 on LSD1 of less than 500 nM.

In turn, `COc1ccc(-n2nc(NC[C@@H]3CCCNC3)cc2-c2ccc(C#N)c(F)c2)cc1` [Example 3R, (R)-2-fluoro-4-(1-(4-methoxyphenyl)-3-((piperidin-3-ylmethyl)amino)-1H-pyrazol-5-yl)benzonitrile] registered an IC50 on LSD1 of less than 500 nM.

Turning to `COC1CCN(c2ccc(-n3nc(NC[C@H]4CCC[C@H](NC(=N)N)C4)cc3-c3ccc(C#N)c(F)c3)cc2)CC1` [Example 128, 1-((1S,3S)-3-(((5-(4-cyano-3-fluorophenyl)-1-(4-(4-methoxypiperidin-1-yl)phenyl)-1H-pyrazol-3-yl)amino)methyl)cyclohexyl)guanidine], the IC50 against LSD1 was less than 500 nM.

`CN1CCN(c2ccc(-n3nc(NC[C@H]4CCC[C@H](N)C4)cc3-c3ccc(C#N)c(F)c3)c(F)c2)CC1=O` [Example 109, 4-(3-((((1S,3S)-3-aminocyclohexyl)methyl)amino)-1-(2-fluoro-4-(4-methyl-3-oxopiperazin-1-yl)phenyl)-1H-pyrazol-5-yl)-2-fluorobenzonitrile]: the concentration for half-maximal inhibition (IC50) against LSD1 was less than 500 nM.

In turn, `N#Cc1ccc(-c2cc(NCC3CNCCO3)nn2-c2ccc(N3CCS(=O)(=O)CC3)cc2F)cc1F` (stereo not drawn) [Example 108, 4-(1-(4-(1,1-dioxidothiomorpholino)-2-fluorophenyl)-3-((morpholin-2-ylmethyl)amino)-1H-pyrazol-5-yl)-2-fluorobenzonitrile 2,2,2-trifluoroacetate] yielded an IC50 on LSD1 of less than 500 nM.

With `CC1(O)CCN(c2ccc(-n3nc(NC[C@H]4CCC[C@H](N)C4)cc3-c3ccc(C#N)c(F)c3)c(F)c2)CC1` [Example 116, 4-(3-((((1S,3S)-3-aminocyclohexyl)methyl)amino)-1-(2-fluoro-4-(4-hydroxy-4-methylpiperidin-1-yl)phenyl)-1H-pyrazol-5-yl)-2-fluorobenzonitrile 2,2,2-trifluoroacetate], the half-inhibitory concentration (IC50) at LSD1 is less than 500 nM.

On LSD1, `COc1cc(N2CCC(OC)CC2)ccc1-n1nc(NC[C@H]2CCC[C@H](N)C2)cc1-c1ccc(C#N)c(F)c1` [Example 114, 4-(3-((((1S,3S)-3-aminocyclohexyl)methyl)amino)-1-(2-methoxy-4-(4-methoxypiperidin-1-yl)phenyl)-1H-pyrazol-5-yl)-2-fluorobenzonitrile 2,2,2-trifluoroacetate] displayed an IC50 of less than 500 nM.

Consider `COc1cc(N2CCN(C)C(=O)C2)ccc1-n1nc(NC[C@H]2CCC[C@H](N)C2)cc1-c1ccc(C#N)c(F)c1` [Example 117, 4-(3-((((1S,3S)-3-aminocyclohexyl)methyl)amino)-1-(2-methoxy-4-(4-methyl-3-oxopiperazin-1-yl)phenyl)-1H-pyrazol-5-yl)-2-fluorobenzonitrile], for which, at LSD1, the half-maximal inhibitory concentration (IC50) is less than 500 nM.

`N#Cc1ccc(-c2cc(NC[C@H]3CCC[C@H](N)C3)nn2-c2ccc(N3CCSCC3)cc2)cc1F` [Example 99, 4-(3-((((1S,3S)-3-aminocyclohexyl)methyl)amino)-1-(4-thiomorpholinophenyl)-1H-pyrazol-5-yl)-2-fluorobenzonitrile]: at LSD1, the IC50 is less than 500 nM.

The molecule `N#Cc1ccc(-c2cc(NCC3CCCNCC3)nn2-c2ccc(N3CC[S+]([O-])CC3)cc2)cc1F` (stereo not drawn) [Example 90, 4-(3-((Azepan-4-ylmethyl)amino)-1-(4-(1-oxidothiomorpholino)phenyl)-1H-pyrazol-5-yl)-2-fluorobenzonitrile 2,2,2-trifluoroacetate] registered an IC50 against LSD1 of less than 500 nM.

Take `COc1ccc(-n2nc(NC[C@H]3CCCNC3)cc2-c2ccc(C#N)c(F)c2)cc1` [Example 3S, (S)-2-fluoro-4-(1-(4-methoxyphenyl)-3-((piperidin-3-ylmethyl)amino)-1H-pyrazol-5-yl)benzonitrile]: the IC50 against LSD1 is less than 500 nM.

The molecule `N#Cc1ccc(-c2cc(NC[C@@H]3CCCNCC3)nn2-c2ccc(N3CCS(=O)(=O)CC3)c(F)c2)cc1F` [Example 111, (R)-4-(3-((azepan-4-ylmethyl)amino)-1-(4-(1,1-dioxidothiomorpholino)-3-fluorophenyl)-1H-pyrazol-5-yl)-2-fluorobenzonitrile 2,2,2-trifluoroacetate] registered a concentration for half-maximal inhibition (IC50) at LSD1 of less than 500 nM.

Regarding `CO[C@H]1CCCN(c2ccc(-n3nc(NC[C@H]4CCC[C@H](N)C4)cc3-c3ccc(C#N)c(F)c3)cc2)C1` [Example 98, 4-(3-((((1S,3S)-3-aminocyclohexyl)methyl)amino)-1-(4-((S)-3-methoxypiperidin-1-yl)phenyl)-1H-pyrazol-5-yl)-2-fluorobenzonitrile 2,2,2-trifluoroacetate], on LSD1, the IC50 is less than 500 nM.

Turning to `N#Cc1ccc(-c2cc(NC[C@H]3CCC[C@H](N)C3)nn2-c2ccc3c(c2)NCCO3)cc1F` [Example 119, 4-(3-((((1S,3S)-3-aminocyclohexyl)methyl)amino)-1-(3,4-dihydro-2H-benzo[b][1,4]oxazin-6-yl)-1H-pyrazol-5-yl)-2-fluorobenzonitrile 2,2,2-trifluoroacetate], on LSD1, the IC50 was less than 500 nM.

For the molecule `CN1CCN(c2ccc(-n3nc(NC[C@H]4CCC[C@H](NC(=N)N)C4)cc3-c3ccc(C#N)c(F)c3)cc2)CC1` [Example 127, 1-((1S,3S)-3-(((5-(4-cyano-3-fluorophenyl)-1-(4-(4-methylpiperazin-1-yl)phenyl)-1H-pyrazol-3-yl)amino)methyl)cyclohexyl)guanidine 2,2,2-trifluoroacetate], the IC50 at LSD1 was less than 500 nM.

On LSD1, `N#Cc1ccc(-c2cc(NC[C@H]3CCC[C@H](N)C3)nn2-c2ccc(N3CCOCC3)cc2)cc1F` [Example 96, 4-(3-((((1S,3S)-3-aminocyclohexyl)methyl)amino)-1-(4-morpholinophenyl)-1H-pyrazol-5-yl)-2-fluorobenzonitrile 2,2,2-trifluoroacetate] registered an IC50 of less than 500 nM.

Broadly, the IC50 is the midpoint of a concentration-inhibition curve.
